# Tests used:
# [1] = tested on: 20 S proteasome; settings: Butler et al., 2006; cited from earlier work
# [2] = tested on: C-reactive protein (CRP); test: Serum C-reactive protein after on-pump coronary artery bypass grafting surgery, Elafin versus placebo; format: in vivo, human; settings: 200 mg i.v. infusion, time point 6 h
# Method: (§1) 44 Patients undergoing on-pump coronary artery bypass grafting surgery received a 200 mg dose of Elafin in 250 mL of normal saline by intravenous infusion that was started at first skin incision and completed at least 20 min before cardiopulmonary bypass commenced. A second group of 42 patients undergoing the same surgical procedure received 250 ml normal saline (placebo) per infusion instead.
# Blood was drawn from patients and from the blood samples serum was prepared. Serum levels of the inflammatory marker C-reactive protein (CRP) at time point 6 h were measured (FIG. 4).
# [3] = tested on: U937; settings: U937 cells, Butler et al., 2006, cited from earlier work
# [4] = tested on: IL-6; test: Serum interleukin 6 after on-pump coronary artery bypass grafting surgery, Elafin versus placebo; format: in vivo, human; settings: 200 mg i.v. infusion
# Method: as §1
# Blood was drawn from patients and from the blood samples serum was prepared. Serum levels of interleukin 6 were determined by the use of a Human Interleukin 6 Immunoassay (R&D Systems Europe, Abingdon, UK) according to the instructions of the manufacturer. This assay employs the quantitative sandwich enzyme immunoassay technique. A monoclonal antibody specific for IL-6 has been pre-coated onto a microplate. Interleukin 6 standards and samples were pipetted into wells and any IL-6 present was bound by an immobilized antibody. After washing away any unbound substances, an enzyme-linked polyclonal antibody specific for IL-6 was added to the wells. Following a wash to remove any unbound antibody-enzyme reagent, a substrate solution was added to the wells. After an incubation period, an amplifier solution was added to the wells and color developed in proportion to the amount of IL-6 bound in the initial step. The color development was stopped and the intensity of the color is measured.
# [5] = tested on: troponin I release from cardiomyocytes; test: Plasma cTroponin I after coronary artery bypass grafting surgery, randomized double-blinded trial, Elafin versus placebo; format: in vivo, human; settings: 200 mg i.v. infusion at start of surgery
# Method: Patients undergoing coronary artery bypass grafting surgery were treated with either intravenous infusion of a 200 mg dose of Elafin in 250 mL of normal saline (Elafin group, n=44) or 250 mL of normal saline (placebo group, n=42) in a randomized, double-blinded clinical trial. The intravenous infusion was started at first skin incision and completed at least 20 min before cardiopulmonary bypass commenced.
# Blood samples were taken at baseline (time 0, skin incision) and at 2, 6, 24 and 48 h post-operatively. Plasma cTroponin I concentrations were quantified with the Abbott Architect highly-sensitive assay (Abbott Laboratories, ILL) according to the manufacturer's instructions. This assay has a sensitivity of 0.01 ng/mL or less, with a 10% coefficient of variation of 0.032 ng/mL and a 99th percentile (male and female) of 0.012 ng/mL. cTroponin I is a regulatory protein of cardiomyocyte contraction and its presence in blood plasma is a specific indication of cardiomyocyte injury.
# [6] = rats; cited from earlier work
substance,measurement,setting,value
"Elafin: recombinant human protein of 57 amino acids (SEQ ID NO:1), reversible tight binding inhibitor of elastase and proteinase 3 (AQEPVKGPVSTKPGSCPIILIRCAMLNPPNRCLKDTDCPGIKKCCEGSCGMACFVPQ; listed as Homo sapiens)",inhibition of peptidase activities associated with the 20 S proteasome,[1],no inhibition
same,effect on serum level of CRP (postoperative rise),[2],no effect
same,effect on serum level of CRP (postoperative rise),[2]; listed as elafin,not affected
same,LPS-induced activation of the transcription factors AP-1 and NF-κB,[3],inhibited
same,production of macrophage chemokine MCP-1 (CCL2),[3]; LPS,inhibition
same,effect on serum level of IL-6 (postoperative rise),[4],no effect
same,effect on serum level of IL-6 (postoperative rise),[4]; listed as elafin,not affected
same,reduction of troponin I release 6 hours after commencement of surgery,[5]; 6 h,significant reduction
same,"overall reduction of the Troponin I release (area under the curve) over 48 hours, in words",[5]; AUC 0-48 h,overall reduction
same,overall reduction of the troponin I release over 48 hours (area under the curve),[5]; AUC 0-48 h,20-40%
same,side effects after intravenous administration,[6],without any side effects

# Reference: patent publication US20230285524A1, “USE OF ELAFIN FOR DISORDERS ASSOCIATED WITH ELASTASE INDEPENDENT INCREASE IN TROPONIN” (tiakis Biotech AG, priority 2014, published 2023)
